# Key:
# coliform bacteria = test: lowest bacteriostasis concentration, tube double dilution method; format: cell-based; conditions: 10^7 cfu/ml, 24 hours, 37° C.
# Procedure: (§1) The lowest bacteriostasis concentration of the six kinds of the alkoxylpropylisothiazolinone of the present invention is measured through the tube double dilution method. In a Φ18×180 mm tube, 5 ml aseptic culture medium was added, then 50 μl bacteria suspended liquid of coliform was injected to prepare culture solution of beef extract peptone having bacteria concentration of 10^7 cfu/ml, then 50 μl tetrahydrofuran solution containing 4,5-dichloro-2-isopropoxypropyl-4-isothiazolin-3-one with the concentration of 2 μg/ml, 4 μg/ml, 8 μg/ml, 16 μg/ml, 32 μg/ml were added respectively. After cultured for 24 hours under a constant temperature of 37° C., the lowest bacteriostasis concentration of 4,5-dichloro-2-isopropoxypropyl-4-isothiazolin-3-one against coliform bacteria was measured. The result is 8 μg/ml (the cfu is a colong forming unit, 1 cfu refer to one single colong formed on the agar plate after being cultured).
# staphylococcus aureus = test: as above; format: cell-based; conditions: 24 hours, 37° C.
# Procedure: as §1
# (§2) When the coliform bacteria of the present invention is replaced with saccharomyces cerevisiae or staphylococcus aureus, and the 4,5-dichloro-2-isopropoxypropyl-4-isothiazolin-3-one is replaced with 4,5-dichloro-2-methoxy-propyl-4-isothiazolin-3-one, 4,5-dichloro-2-ethoxypropyl-4-isothiazolin-3-one, 4,5-dichloro-2-butoxypropyl-4-isothiazolin-3-one, 4,5-dichloro-2-methoxyethoxypropyl-4-isothiazolin-3-one, or 4,5-dichloro-2-chlorophenoxyethoxypropyl-4-isothiazolin-3-one, a considerable experimental results are also received, which are shown in the following table.
# saccharomyces cerevisiae = test: as above; format: cell-based; conditions: 24 hours, 37° C.
# Procedure: as §1, §2
# heterotrophic bacteria = test: sterilization test in industrial cooling (circulating) water system; conditions: for control and sterilization of microorganism in industry cooling water (in words): industrial cooling water; for the amount of the heterotrophic bacteria, virtual result / the rate of sterilization: 50 mg/L medicament
# Text: The compound of the present invention may be used to control and sterilize alga, fungi and bacteria in the industrial cooling water system. First, chlorine was stopped adding into the circulating water system for 3 days before administration. The total amount of the heterotrophic bacteria in the circulating water was raised, and then the 4,5-dichloro-2-methoxyethoxypropyl-4-isothiazolin-3-one was thrown in, while the discharge of the water was stopped. The amount of the heterotrophic bacteria in water and the sterilization rate was measured at 4 hours, 12 hours, 24 hours, 36 hours after the medicament was added.
# leaf spot of beet = test: drug action and field test against leaf spot of beet; format: in vivo
# Text: Otherwise, it has also a good prevent function to the apple ring rot, tomato gray mold and cotton soreshin. For example, when the 4,5-dichloro-2-isopropoxypropyl-4-isothiazolin-3-one is used as bactericide, it is merely required 39 g pure medicament per mu ( 1/15 of a hectare) with the concentration of 250 ppm to control the leaf spot of bee, and the efficiency of the prevention and cure is up to 75.0%.
SMILES,lowest bacteriostasis concentration (coliform bacteria),lowest bacteriostasis concentration (staphylococcus aureus),lowest bacteriostasis concentration (saccharomyces cerevisiae),control and sterilization of microorganism in industry cooling water (in words) (heterotrophic bacteria),effect of the prevention and cure (in words) (leaf spot of beet),"the amount of the heterotrophic bacteria, virtual result (heterotrophic bacteria; 4 h after addition)",the rate of sterilization (heterotrophic bacteria; 4 h after addition),"the amount of the heterotrophic bacteria, virtual result (heterotrophic bacteria; 12 h after addition)",the rate of sterilization (heterotrophic bacteria; 12 h after addition),"the amount of the heterotrophic bacteria, virtual result (heterotrophic bacteria; 24 h after addition)",the rate of sterilization (heterotrophic bacteria; 24 h after addition),"the amount of the heterotrophic bacteria, virtual result (heterotrophic bacteria; 36 h after addition)",the rate of sterilization (heterotrophic bacteria; 36 h after addition),"efficiency of the prevention and cure (leaf spot of beet; 39 g pure medicament per mu, 250 ppm)"
CCCCOCCCn1sc(Cl)c(Cl)c1=O,4 µg/mL,8 µg/mL,4 µg/mL,controlled and sterilized effectively,–,–,–,–,–,–,–,–,–,–
"O=c1c(Cl)c(Cl)sn1CCCOCCOc1ccc(Cl)cc1 [4,5-dichloro-2-chlorophenoxyethoxypropyl-4-isothiazolin-3-one]",8 µg/mL,16 µg/mL,8 µg/mL,–,–,–,–,–,–,–,–,–,–,–
"COC(COC(C)Cn1sc(Cl)c(Cl)c1=O)OC (centres unmarked) [4,5-dichloro-2-dimethoxyethoxypropyl-4-isothiazolin-3-one]",–,–,–,–,considerable effect of the prevention and cure,–,–,–,–,–,–,–,–,–
"CCOCCCn1sc(Cl)c(Cl)c1=O [4,5-dichloro-2-ethoxypropyl-4-isothiazolin-3-one]",4 µg/mL,16 µg/mL,8 µg/mL,controlled and sterilized effectively,considerable effect of the prevention and cure,–,–,–,–,–,–,–,–,–
COCCCn1sc(Cl)c(Cl)c1=O,4 µg/mL,32 µg/mL,16 µg/mL,controlled and sterilized effectively,–,–,–,–,–,–,–,–,–,–
"COCCOCCCn1sc(Cl)c(Cl)c1=O [4,5-dichloro-2-methoxyethoxypropyl-4-isothiazolin-3-one]",16 µg/mL,16 µg/mL,16 µg/mL,–,considerable effect of the prevention and cure,2.0 × 10^5 number/mL,99.33%,4.0 × 10^4 number/mL,99.87%,3.0 × 10^4 number/mL,99.90%,3.3 × 10^4 number/mL,99.89%,–
"CC(C)OCCCn1sc(Cl)c(Cl)c1=O [4,5-dichloro-2-isopropoxypropyl-4-isothiazolin-3-one]",8 µg/mL,16 µg/mL,8 µg/mL,controlled and sterilized effectively,considerable effect of the prevention and cure,–,–,–,–,–,–,–,–,up to 75.0%
